A word on the Ki: it is a dissociation constant, usually derived from enzyme kinetics or from competition with a known ligand.

These results are taken from patent publication US10227344B2, “CK2 inhibitors, compositions and methods thereof” (Polaris Pharmaceuticals, Inc., priority 2016, dated 2019).

Structures can show the parent of a compound that is named as a salt.

Sequence of purified CK2α enzyme (P68400 whole entry): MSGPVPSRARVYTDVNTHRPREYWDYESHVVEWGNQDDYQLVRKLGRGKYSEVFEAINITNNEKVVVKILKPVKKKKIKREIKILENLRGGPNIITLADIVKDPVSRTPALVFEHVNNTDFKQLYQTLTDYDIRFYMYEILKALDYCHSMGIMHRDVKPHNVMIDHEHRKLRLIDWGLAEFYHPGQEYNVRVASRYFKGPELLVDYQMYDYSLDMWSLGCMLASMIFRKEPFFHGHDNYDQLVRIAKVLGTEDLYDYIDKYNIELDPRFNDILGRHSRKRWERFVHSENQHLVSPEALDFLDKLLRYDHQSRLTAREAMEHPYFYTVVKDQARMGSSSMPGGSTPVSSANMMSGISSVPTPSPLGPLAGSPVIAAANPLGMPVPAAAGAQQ

The assay deals with purified CK2α enzyme (Homo sapiens, UniProt P68400). Put plainly: CK2 Protein Kinase Inhibition Assay (coupled PK/LDH assay). The class given is biochemical. The settings on record: CK2 enzyme 25 nM, 100 μM ATP, 37° C., Morrison equation. Here is the method:
A coupled PK (pyruvate kinase)/LDH (lactate dehydrogenase) assay was used to measure compounds' ability to inhibit purified CK2α enzyme.
The ADP product of kinase CK2a is the cofactor for PK. Phospho(enol)pyruvate (PEP) PEP is metabolized by pyruvate kinase to yield pyruvate, which is the substrate for LDH.
Serially diluted compounds were pre-incubated for 10 min at 37° C. with and 1.5 mM […] peptide substrate, 6 U/ml PK and 10 U/ml LDH (purchased from Sigma-Aldrich), 100 μM ATP, 1.2 mM NADH, 4 mM PEP in the reaction buffer (50 mM Tris (pH 8.25), 0.1 M NaCl, 10 mM magnesium acetate). The reaction was initiated by the addition of an equal volume of purified CK2 enzyme (final concentration 25 nM) diluted in the reaction buffer. Absorbance at 340 nm was measured overtime (for 30 min) at 37° C.; as NADH was converted to NAD+ the absorbance decreases. Absorbance decrease rate (per min) was plotted against the compound concentration and Ki is determined by GraphPad Prism using Morrison equation. All data points were performed in triplicate and each compound was tested in at least two separate experiments.
To this end, K, values of less than 2.5 nM are labelled as “+++”, from 2.5 nM to 10 nM are labelled as “++”, and greater than 10 nM are labelled as “+”.
The compound `C[S+]([O-])Cc1cc(Nc2cc(NC3CC3)n3ncc(C#N)c3n2)ccc1Cl` (racemic) [Example 1, (±)-5-((4-Chloro-3-((methylsulfinyl)methyl)phenyl)amino)-7-(cyclopropylamino)pyrazolo[1,5-a]pyrimidine-3-carbonitrile] gave an inhibition constant (Ki) of under 2.5 nM. For `C[S+]([O-])Cc1cc(Nc2cc(NC3CC3)n3ncc(C#N)c3n2)ccc1F` (racemic) [Example 5, (±)-7-(Cyclopropylamino)-5-((4-fluoro-3-((methylsulfinyl)methyl)phenyl)amino)pyrazolo[1,5-a]pyrimidine-3-carbonitrile] the value was 2.5 to 10 nM. With `C[S+]([O-])Cc1cc(Nc2cc(NC3CC3)n3ncc(C#N)c3n2)ccc1C#N` (racemic) [Example 6, (±)-5-((4-Cyano-3-((methylsulfinyl)methyl)phenyl)amino)-7-(cyclopropylamino)pyrazolo[1,5-a]pyrimidine-3-carbonitrile] the figure was 2.5 to 10 nM. With `CN(CCN)c1ccc(Nc2cc(NC3CC3)n3ncc(C#N)c3n2)cc1C[S+](C)[O-]` (racemic) [Example 7, (±)-5-((4-((2-Aminoethyl)(methyl)amino)-3-((methylsulfinyl)methyl)phenyl)amino)-7-(cyclopropylamino)pyrazolo[1,5-a]pyrimidine-3-carbonitrile mono trifluoroacetic acid salt] the figure was under 2.5 nM. For `C[S+]([O-])Cc1cc(Nc2cc(NC3CC3)n3ncc(C#N)c3n2)ccc1CCN` (racemic) [Example 8, (±)-5-((4-(2-Aminoethyl)-3-((methylsulfinyl)methyl)phenyl)amino)-7-(cyclopropylamino)pyrazolo[1,5-a]pyrimidine-3-carbonitrile mono trifluoroacetic acid salt], the inhibition constant (Ki) is under 2.5 nM. For `CS(=N)(=O)Cc1cc(Nc2cc(NC3CC3)n3ncc(C#N)c3n2)ccc1Cl` (racemic) [Example 12, (±)-5-((4-Chloro-3-((S-methylsulfonimidoyl)methyl)phenyl)amino)-7-(cyclopropylamino)pyrazolo[1,5-a]pyrimidine-3-carbonitrile] the value was 2.5 to 10 nM. For `C[S+]([O-])Cc1cc(Nc2cc(NC3CC3)n3ncc(C#N)c3n2)ccc1C1CC1` (racemic) [Example 13, (±)-5-((4-Cyclopropyl-3-((methylsulfinyl)methyl)phenyl)amino)-7-(cyclopropylamino)pyrazolo[1,5-a]pyrimidine-3-carbonitrile], the Ki was under 2.5 nM.

For the compound `C[S+]([O-])Cc1cc(Nc2cc(NC3CC3)n3ncc(C#N)c3n2)ccc1N1CCNCC1` (racemic) [Example 14, (±)-7-(Cyclopropylamino)-5-((3-((methylsulfinyl)methyl)-4-(piperazin-1-yl)phenyl)amino)pyrazolo[1,5-a]pyrimidine-3-carbonitrile mono trifluoroacetic acid salt], the Ki is 2.5 to 10 nM. With `C[S+]([O-])Cc1cc(Nc2cc(NC3CC3)n3ncc(C#N)c3n2)ccc1CN` (racemic) [Example 15, (±)-5-((4-(Aminomethyl)-3-((methylsulfinyl)methyl)phenyl)amino)-7-(cyclopropylamino)pyrazolo[1,5-a]pyrimidine-3-carbonitrile mono trifluoroacetic acid salt] the figure was 2.5 to 10 nM; with `CN(CC1CC1)c1ccc(Nc2cc(NC3CC3)n3ncc(C#N)c3n2)cc1C[S+](C)[O-]` (racemic) [Example 16, (±)-7-(Cyclopropylamino)-5-((4-((cyclopropylmethyl)(methyl)amino)-3-((methylsulfinyl)methyl)phenyl)amino)pyrazolo[1,5-a]pyrimidine-3-carbonitrile], under 2.5 nM. With `CNCCN(C)c1ccc(Nc2cc(NC3CC3)n3ncc(C#N)c3n2)cc1C[S+](C)[O-]` (racemic) [Example 21, (±)-7-(Cyclopropylamino)-5-((4-(methyl(2-(methylamino)ethyl)amino)-3-((methylsulfinyl)methyl)phenyl)amino)pyrazolo[1,5-a]pyrimidine-3-carbonitrile mono trifluoroacetic acid salt] the figure was under 2.5 nM; with `C[S+]([O-])Cc1cc(Nc2cc(NC3CC3)n3ncc(C#N)c3n2)ccc1N1CC(O)C1` (racemic) [Example 27, (±)-7-(cyclopropylamino)-5-((4-(3-hydroxyazetidin-1-yl)-3-((methylsulfinyl)methyl)phenyl)amino)pyrazolo[1,5-a]pyrimidine-3-carbonitrile], under 2.5 nM; with `C[S+]([O-])Cc1cc(Nc2cc(NC3CC3)n3ncc(C#N)c3n2)ccc1OCC1(N)CC1` (racemic) [Example 28, (±)-5-((4-((1-aminocyclopropyl)methoxy)-3-((methylsulfinyl)methyl)phenyl)amino)-7-(cyclopropylamino)pyrazolo[1,5-a]pyrimidine-3-carbonitrile mono trifluoroacetic acid salt], 2.5 to 10 nM. In the case of `C[S+]([O-])Cc1cc(Nc2cc(NC3CC3)n3ncc(C#N)c3n2)ccc1OCC(C)(C)N` (racemic) [Example 30, (±)-5-((4-(2-amino-2-methylpropoxy)-3-((methylsulfinyl)methyl)phenyl)amino)-7-(cyclopropylamino)pyrazolo[1,5-a]pyrimidine-3-carbonitrile mono trifluoroacetic acid salt], the Ki was 2.5 to 10 nM.

In turn, `C[S+]([O-])Cc1cc(Nc2cc(NC3CC3)n3ncc(C#N)c3n2)ccc1-c1cn[nH]c1` (racemic) [Example 35, (±)-7-(Cyclopropylamino)-5-((3-((methylsulfinyl)methyl)-4-(1H-pyrazol-4-yl)phenyl)amino)pyrazolo[1,5-a]pyrimidine-3-carbonitrile] returned a Ki of over 10 nM. For `CN(c1ccc(Nc2cc(NC3CC3)n3ncc(C#N)c3n2)cc1C[S+](C)[O-])C1CC1` (racemic) [Example 36, (±)-5-((4-(Cyclopropyl(methyl)amino)-3-((methylsulfinyl)methyl)phenyl)amino)-7-(cyclopropylamino)pyrazolo[1,5-a]pyrimidine-3-carbonitrile] the value was under 2.5 nM; for `C[S+]([O-])Cc1cc(Nc2cc(NC3CC3)n3ncc(C#N)c3n2)ccc1C1(CN)CC1` (racemic) [Example 38, (±)-5-((4-(1-(Aminomethyl)cyclopropyl)-3-((methylsulfinyl)methyl)phenyl)amino)-7-(cyclopropylamino)pyrazolo[1,5-a]pyrimidine-3-carbonitrile], 2.5 to 10 nM; for `C[S+]([O-])Cc1cc(Nc2cc(NC3CC3)n3ncc(C#N)c3n2)ccc1N1CC(N)C1` (racemic) [Example 40, (±)-5-((4-(3-Aminoazetidin-1-yl)-3-((methylsulfinyl)methyl)phenyl)amino)-7-(cyclopropylamino)pyrazolo[1,5-a]pyrimidine-3-carbonitrile], under 2.5 nM. For `C[S+]([O-])Cc1cc(Nc2cc(NC3CC3)n3ncc(C#N)c3n2)ccc1N1CC(CN)C1` (racemic) [Example 42, (±)-5-((4-(3-(Aminomethyl)azetidin-1-yl)-3-((methylsulfinyl)methyl)phenyl)amino)-7-(cyclopropylamino)pyrazolo[1,5-a]pyrimidine-3-carbonitrile] the value was under 2.5 nM; for `CN(c1ccc(Nc2cc(NC3CC3)n3ncc(C#N)c3n2)cc1C[S+](C)[O-])C1CNC1` (racemic) [Example 44, (±)-5-((4-(Azetidin-3-yl(methyl)amino)-3-((methylsulfinyl)methyl)phenyl)amino)-7-(cyclopropylamino)pyrazolo[1,5-a]pyrimidine-3-carbonitrile], 2.5 to 10 nM; for `C[S+]([O-])Cc1cc(Nc2cc(NC3CC3)n3ncc(C#N)c3n2)ccc1N1CCCC1` (racemic) [Example 46, (±)-7-(Cyclopropylamino)-5-((3-((methylsulfinyl)methyl)-4-(pyrrolidin-1-yl)phenyl)amino)pyrazolo[1,5-a]pyrimidine-3-carbonitrile], under 2.5 nM. With `CN(CCN)c1ccc(Nc2cc(NC3CC3)c3ncc(C#N)n3n2)cc1C[S+](C)[O-]` (racemic) [Example 47, (±)-6-((4-((2-Aminoethyl)(methyl)amino)-3-((methylsulfinyl)methyl)phenyl)amino)-8-(cyclopropylamino)imidazo[1,2-b]pyridazine-3-carbonitrile mono trifluoroacetic acid salt] the figure was 2.5 to 10 nM; with `CN(CCN)c1ccc(Nc2nc(NC3CC3)c3ncc(C#N)n3n2)cc1C[S+](C)[O-]` (racemic) [Example 49, (±)-2-((4-((2-aminoethyl)(methyl)amino)-3-((methylsulfinyl)methyl)phenyl)amino)-4-(cyclopropylamino)imidazo[2,1-f][1,2,4]triazine-7-carbonitrile mono trifluoroacetic acid salt], 2.5 to 10 nM. The compound `CN(CCN)c1ccc(Nc2nc(NC3CC3)n3ncc(C#N)c3n2)cc1C[S+](C)[O-]` (racemic) [Example 51, (±)-2-((4-((2-aminoethyl)(methyl)amino)-3-((methylsulfinyl)methyl)phenyl)amino)-4-(cyclopropylamino)pyrazolo[1,5-a][1,3,5]triazine-8-carbonitrile mono trifluoroacetic acid salt] had a Ki of under 2.5 nM.
